According to PMC10873978, “Novel tetrahydroisoquinolines as DHFR and CDK2 inhibitors: synthesis, characterization, anticancer activity and antioxidant properties” (BMC Chemistry, 2024):
Entries after “also recorded” stand apart in the source; their conditions may differ.

Key:
[1] = DPPH scavenging antioxidant activity
Method: The antioxidant activity of ten compounds was determined using DPPH [32–34]. A solution 1: prepared by dissolving DPPH (0.002 g) in ethanol (50 mL etnanol). Solution 2: prepared by dissolving different weights 0.05, 0.01 g of each sample in 1 mL of DMSO then take 10 µL of each sample solution with 1 mL ethanol. Then mix 1 mL of solution 1 with 1 mL of solution 2 then vortex the resulting mixture in the dark for about 30 min. The absorbance of the mixture was measured by spectrophotometer at λmax = 517 nm against blank 1 mL absolute ethanol and compared to the ascorbic acid (Vitamin C).
Ten newly synthesized compounds were studied as in vitro antioxidants by measuring of their DPPH scavenging activity which is represented as a percentage % [32]^. Results are represented by mean ± SD of three replicates. […] The higher dose concentration of 0.05 μg/mL represents higher antioxidant activity. […] The high antioxidant activity is referred to the presence of C=O, NH2, and OH groups like ascorbic acid which can be easily oxidized and reduced and can be used as antioxidant drugs. (Fig. 8 and Table 9).

MCF7 cell line = test: In vitro cytotoxic activity, MTT method, MCF7; format: cell-based, human; conditions: for IC50: Homo sapiens, MCF7, MCF7 cell line, MTT
Method in brief: (§1)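 Monolayers formed over 24 h at 37 °C from 10^5 cells/mL were treated with graded compound concentrations, doxorubicin serving as reference. Viability came from MTT reduction over 1–5 h (5% CO2), absorbance at 560 nm with 620 nm background subtraction.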

A549 cell line = test: In vitro cytotoxic activity, MTT method, A549; conditions: for IC50: Homo sapiens, read-out: IC50 ± SD
Method in brief: as §1

Compound: CC(=O)C1C(c2ccc(N(C)C)cc2)c2c(C)nc(SCC#N)c(C#N)c2CC1(C)O (centres unmarked) [Compound 6, 2-[(7-Acetyl-4-cyano-1,6-dimethyl-6-hydroxy-8-(4-N,N-dimethylamino-phenyl)-5,6,7,8-tetrahydroisoquinolin-3-yl)thio]acetonitrile]
- DPPH scavenging, inhibition (%) ([1]; 0.01 µg/mL): 69.67 ± 5.65%
- DPPH scavenging, inhibition (%) ([1]; 0.05 µg/mL): 83.72 ± 4.08%
- antioxidant activity compared with Vitamin C ([1]; DPPH): higher result than Vitamin C; also recorded: higher antioxidant activity than Vitamin C
- IC50 (MCF7 cell line): 329 ± 5 nM
- Viability % (MCF7 cell line; MCF7, 0.0487 µMol): 80.118%
- Toxicity % (MCF7 cell line; MCF7, 0.0975 µMol): 25.5567%
- Viability % (MCF7 cell line; MCF7, 0.0975 µMol): 74.5543%
- Toxicity % (MCF7 cell line; MCF7, 0.195 µMol): 38.24%
- Viability % (MCF7 cell line; MCF7, 0.195 µMol): 61.76%
- Toxicity % (MCF7 cell line; MCF7, 0.391 µMol): 59.68%
- Viability % (MCF7 cell line; MCF7, 0.391 µMol): 40.32%
- Toxicity % (MCF7 cell line; MCF7, 0.781 µMol): 70.71%
- Viability % (MCF7 cell line; MCF7, 0.781 µMol): 29.29%
- Toxicity % (MCF7 cell line; MCF7, 1.562 µMol): 76.35%
- Viability % (MCF7 cell line; MCF7, 1.562 µMol): 23.65%
- Toxicity % (MCF7 cell line; MCF7, 3.125 µMol): 85.7%
- Viability % (MCF7 cell line; MCF7, 3.125 µMol): 14.3%
- Toxicity % (MCF7 cell line; MCF7, 6.25 µMol): 93.38%
- Viability % (MCF7 cell line; MCF7, 6.25 µMol): 6.618%
- Toxicity % (MCF7 cell line; MCF7, 12.5 µMol): 97.14%
- Viability % (MCF7 cell line; MCF7, 12.5 µMol): 2.859%
- Toxicity % (MCF7 cell line; MCF7, 25 µMol): 97.34%
- Viability % (MCF7 cell line; MCF7, 25 µMol): 2.655%
- Viability % (A549 cell line; A549, Conc. 0.0487 µMol): 99.7%
- Toxicity % (A549 cell line; A549, Conc. 0.0975 µMol): 0.50%
- Viability % (A549 cell line; A549, Conc. 0.0975 µMol): 99.5%
- Toxicity % (A549 cell line; A549, Conc. 0.195 µMol): 0.6312%
- Viability % (A549 cell line; A549, Conc. 0.195 µMol): 99.37%
- Toxicity % (A549 cell line; A549, Conc. 0.391 µMol): 1.46%
- Viability % (A549 cell line; A549, Conc. 0.391 µMol): 98.54%
- Toxicity % (A549 cell line; A549, Conc. 0.781 µMol): 15.46%
- Viability % (A549 cell line; A549, Conc. 0.781 µMol): 84.54%
- Toxicity % (A549 cell line; A549, Conc. 1.562 µMol): 29.7%
- Viability % (A549 cell line; A549, Conc. 1.562 µMol): 70.3%
- Toxicity % (A549 cell line; A549, Conc. 3.125 µMol): 43.83%
- Viability % (A549 cell line; A549, Conc. 3.125 µMol): 56.17%
- Toxicity % (A549 cell line; A549, Conc. 6.25 µMol): 74.71%
- Viability % (A549 cell line; A549, Conc. 6.25 µMol): 25.29%
- Toxicity % (A549 cell line; A549, Conc. 12.5 µMol): 88.52%
- Viability % (A549 cell line; A549, Conc. 12.5 µMol): 11.48%
- Toxicity % (A549 cell line; A549, Conc. 25 µMol): 96.29%
- Viability % (A549 cell line; A549, Conc. 25 µMol): 3.708%
- IC50 (A549 cell line): 3736 ± 2 nM

Compound: CC(=O)C1C(c2ccc(N(C)C)cc2)c2c(C)nc(SCC(=O)Nc3ccccc3)c(C#N)c2CC1(C)O (centres unmarked) [Compound 7a, 2-[(7-Acetyl-4-cyano-1,6-dimethyl-6-hydroxy-8-(4-N,N-dimethylamino-phenyl)-5,6,7,8-tetrahydroisoquinolin-3-yl)thio]-N-phenylacetamide]
- DPPH scavenging, inhibition (%) ([1]; 0.01 µg/mL): 43.26 ± 0.73%
- DPPH scavenging, inhibition (%) ([1]; 0.05 µg/mL): 62.96 ± 0.73%
- IC50 (MCF7 cell line): 2218 ± 4 nM
- Toxicity % (MCF7 cell line; MCF7, 0.0487 µMol): -5.346%
- Viability % (MCF7 cell line; MCF7, 0.0487 µMol): 105.8%
- Toxicity % (MCF7 cell line; MCF7, 0.0975 µMol): -3.456%
- Viability % (MCF7 cell line; MCF7, 0.0975 µMol): 103.5%
- Toxicity % (MCF7 cell line; MCF7, 0.195 µMol): -2.859%
- Viability % (MCF7 cell line; MCF7, 0.195 µMol): 102.9%
- Toxicity % (MCF7 cell line; MCF7, 0.391 µMol): 8.047%
- Viability % (MCF7 cell line; MCF7, 0.391 µMol): 91.95%
- Toxicity % (MCF7 cell line; MCF7, 0.781 µMol): 23.12%
- Viability % (MCF7 cell line; MCF7, 0.781 µMol): 76.88%
- Toxicity % (MCF7 cell line; MCF7, 1.562 µMol): 33.82%
- Viability % (MCF7 cell line; MCF7, 1.562 µMol): 66.18%
- Toxicity % (MCF7 cell line; MCF7, 3.125 µMol): 52.98%
- Viability % (MCF7 cell line; MCF7, 3.125 µMol): 47.02%
- Toxicity % (MCF7 cell line; MCF7, 6.25 µMol): 71.85%
- Viability % (MCF7 cell line; MCF7, 6.25 µMol): 28.15%
- Toxicity % (MCF7 cell line; MCF7, 12.5 µMol): 91.95%
- Viability % (MCF7 cell line; MCF7, 12.5 µMol): 8.047%
- Toxicity % (MCF7 cell line; MCF7, 25 µMol): 97.39%
- Viability % (MCF7 cell line; MCF7, 25 µMol): 2.614%
- Toxicity % (A549 cell line; A549, Conc. 0.04875 µMol): 0.09882%
- Viability % (A549 cell line; A549, Conc. 0.04875 µMol): 99.9%
- Toxicity % (A549 cell line; A549, Conc. 0.0975 µMol): 0.1346%
- Viability % (A549 cell line; A549, Conc. 0.0975 µMol): 99.87%
- Toxicity % (A549 cell line; A549, Conc. 0.195 µMol): 0.168%
- Viability % (A549 cell line; A549, Conc. 0.195 µMol): 99.83%
- Toxicity % (A549 cell line; A549, Conc. 0.391 µMol): 13.91%
- Viability % (A549 cell line; A549, Conc. 0.391 µMol): 86.09%
- Toxicity % (A549 cell line; A549, Conc. 0.781 µMol): 29.94%
- Viability % (A549 cell line; A549, Conc. 0.781 µMol): 70.06%
- Toxicity % (A549 cell line; A549, Conc. 1.562 µMol): 41.33%
- Viability % (A549 cell line; A549, Conc. 1.562 µMol): 58.67%
- Toxicity % (A549 cell line; A549, Conc. 3.125 µMol): 53.33%
- Viability % (A549 cell line; A549, Conc. 3.125 µMol): 46.67%
- Toxicity % (A549 cell line; A549, Conc. 6.25 µMol): 80.11%
- Viability % (A549 cell line; A549, Conc. 6.25 µMol): 19.89%
- Toxicity % (A549 cell line; A549, Conc. 12.5 µMol): 91.33%
- Viability % (A549 cell line; A549, Conc. 12.5 µMol): 8.669%
- Toxicity % (A549 cell line; A549, Conc. 25 µMol): 96.98%
- Viability % (A549 cell line; A549, Conc. 25 µMol): 3.024%
- IC50 (A549 cell line): 1586 ± 1 nM

Compound: CC(=O)C1C(c2ccc(N(C)C)cc2)c2c(C)nc(SCC(=O)Nc3ccc(C)cc3)c(C#N)c2CC1(C)O (centres unmarked) [Compound 7b, 2-[(7-Acetyl-4-cyano-1,6-dimethyl-6-hydroxy-8-(4-N,N-dimethylamino-phenyl)-5,6,7,8-tetrahydroisoquinolin-3-yl)thio]-N-(4-tolyl)acetamide]
- DPPH scavenging, inhibition (%) ([1]; 0.01 µg/mL): 48.59 ± 0.73%
- DPPH scavenging, inhibition (%) ([1]; 0.05 µg/mL): 52.19 ± 0.58%
- IC50 (MCF7 cell line): 474 ± 6 nM
- Toxicity % (MCF7 cell line; MCF7, 0.0487 µMol): 4.569%
- Viability % (MCF7 cell line; MCF7, 0.0487 µMol): 95.4311%
- Toxicity % (MCF7 cell line; MCF7, 0.0975 µMol): 6.234%
- Viability % (MCF7 cell line; MCF7, 0.0975 µMol): 93.77%
- Toxicity % (MCF7 cell line; MCF7, 0.195 µMol): 8.333%
- Viability % (MCF7 cell line; MCF7, 0.195 µMol): 91.67%
- Toxicity % (MCF7 cell line; MCF7, 0.391 µMol): 39.62%
- Viability % (MCF7 cell line; MCF7, 0.391 µMol): 60.38%
- Toxicity % (MCF7 cell line; MCF7, 0.781 µMol): 74.92%
- Viability % (MCF7 cell line; MCF7, 0.781 µMol): 25.08%
- Toxicity % (MCF7 cell line; MCF7, 1.562 µMol): 82.39%
- Viability % (MCF7 cell line; MCF7, 1.562 µMol): 17.61%
- Toxicity % (MCF7 cell line; MCF7, 3.125 µMol): 86.44%
- Viability % (MCF7 cell line; MCF7, 3.125 µMol): 13.56%
- Toxicity % (MCF7 cell line; MCF7, 6.25 µMol): 93.1%
- Viability % (MCF7 cell line; MCF7, 6.25 µMol): 6.904%
- Toxicity % (MCF7 cell line; MCF7, 12.5 µMol): 96.61%
- Viability % (MCF7 cell line; MCF7, 12.5 µMol): 3.391%
- Toxicity % (MCF7 cell line; MCF7, 25 µMol): 96.57%
- Viability % (MCF7 cell line; MCF7, 25 µMol): 3.431%
- Toxicity % (A549 cell line; A549, Conc. 0.04875 µMol): 0.2467%
- Viability % (A549 cell line; A549, Conc. 0.04875 µMol): 99.7534%
- Toxicity % (A549 cell line; A549, Conc. 0.0975 µMol): 0.3467%
- Viability % (A549 cell line; A549, Conc. 0.0975 µMol): 99.6534%
- Toxicity % (A549 cell line; A549, Conc. 0.195 µMol): 0.5128%
- Viability % (A549 cell line; A549, Conc. 0.195 µMol): 99.49%
- Toxicity % (A549 cell line; A549, Conc. 0.391 µMol): 14.2%
- Viability % (A549 cell line; A549, Conc. 0.391 µMol): 85.8%
- Toxicity % (A549 cell line; A549, Conc. 0.781 µMol): 35.82%
- Viability % (A549 cell line; A549, Conc. 0.781 µMol): 64.18%
- Toxicity % (A549 cell line; A549, Conc. 1.562 µMol): 53.81%
- Viability % (A549 cell line; A549, Conc. 1.562 µMol): 46.19%
- Toxicity % (A549 cell line; A549, Conc. 3.125 µMol): 72.39%
- Viability % (A549 cell line; A549, Conc. 3.125 µMol): 27.61%
- Toxicity % (A549 cell line; A549, Conc. 6.25 µMol): 86.39%
- Viability % (A549 cell line; A549, Conc. 6.25 µMol): 13.61%
- Toxicity % (A549 cell line; A549, Conc. 12.5 µMol): 93.85%
- Viability % (A549 cell line; A549, Conc. 12.5 µMol): 6.154%
- Toxicity % (A549 cell line; A549, Conc. 25 µMol): 96.41%
- Viability % (A549 cell line; A549, Conc. 25 µMol): 3.59%
- IC50 (A549 cell line): 987 ± 2 nM
